Results from ChEMBL document CHEMBL5724914, “Linking interpersonal differences in gut microbiota composition and drug biotransformation activity” (2024).

How the values were obtained:
[1] = (§1) The drug is tested on Z-025 corresponding to rabbit gut metagenome with ENA study accession number: PRJEB37062 and ENA sample accession number: ERS12561824 for biotransformation under anaerobic condition. The drug concentrations were measured over 9 timepoints collected between 0 and 24 hours of incubation by liquid-chromatography-coupled mass spectrometry (LC–MS); conditions: 2 µM
[2] = as §1, with “Z-024” for “Z-025”, “pig” for “rabbit”, “ERS12561823” for “ERS12561824”; conditions: 2 µM
[3] = as §1, with “Z-021” for “Z-025”, “to” for “to rabbit gut”, “ERS12561820” for “ERS12561824”; conditions: 2 µM
[4] = as §1, with “Z-018” for “Z-025”, “pig” for “rabbit”, “ERS12561817” for “ERS12561824”; conditions: 2 µM
[5] = as §1, with “Z-007” for “Z-025”, “rat” for “rabbit”, “ERS12561807” for “ERS12561824”; conditions: 2 µM
[6] = as §1, with “Z-003” for “Z-025”, “pig” for “rabbit”, “ERS12561803” for “ERS12561824”; conditions: 2 µM
[7] = as §1, with “Z-001” for “Z-025”, “mouse” for “rabbit”, “ERS12561801” for “ERS12561824”; conditions: 2 µM
[8] = as §1, with “WLS-350” for “Z-025”, “human” for “rabbit”, “ERS12561789” for “ERS12561824”; conditions: 2 µM
[9] = as §1, with “WLS-310” for “Z-025”, “human” for “rabbit”, “ERS12561785” for “ERS12561824”; conditions: 2 µM
[10] = as §1, with “WLS-220” for “Z-025”, “human” for “rabbit”, “ERS12561769” for “ERS12561824”; conditions: 2 µM
[11] = as §1, with “WLS-006” for “Z-025”, “human” for “rabbit”, “ERS12561741” for “ERS12561824”; conditions: 2 µM
[12] = human gut metagenome, 24 h, 2 µM
[13] = human gut metagenome, 24 h, 2 µM; remark: listed apart in the source
[14] = human gut metagenome, 24 h, 2 µM; remark: listed apart in the source
[15] = human gut metagenome, 24 h, 2 µM; remark: listed apart in the source
[16] = human gut metagenome, 24 h, 2 µM; remark: listed apart in the source
[17] = human gut metagenome, 24 h, 2 µM; remark: listed apart in the source
[18] = human gut metagenome, 24 h, 2 µM; remark: listed apart in the source
[19] = human gut metagenome, 24 h, 2 µM; remark: listed apart in the source
[20] = human gut metagenome, 24 h, 2 µM; remark: listed apart in the source
Note: call rule not given here.

SMILES | Bacterial Biotransformation [1] | Bacterial Biotransformation [2] | Bacterial Biotransformation [3] | Bacterial Biotransformation [4] | Bacterial Biotransformation [5] | Bacterial Biotransformation [6] | Bacterial Biotransformation [7] | Bacterial Biotransformation [8] | Bacterial Biotransformation [9] | Bacterial Biotransformation [10] | Bacterial Biotransformation [11] | Bacterial Biotransformation [12] | Bacterial Biotransformation [13] | Bacterial Biotransformation [14] | Bacterial Biotransformation [15] | Bacterial Biotransformation [16] | Bacterial Biotransformation [17] | Bacterial Biotransformation [18] | Bacterial Biotransformation [19] | Bacterial Biotransformation [20]
CCN(CC)CCNC(=O)c1cc(S(C)(=O)=O)ccc1OC [TIAPRIDE] | Compound NOT metabolized | Compound NOT metabolized | Compound NOT metabolized | Compound NOT metabolized | Compound NOT metabolized | Compound metabolized | Compound metabolized | Compound NOT metabolized | Compound metabolized | Compound metabolized | Compound NOT metabolized | Compound NOT metabolized | Compound NOT metabolized | Compound NOT metabolized | Compound NOT metabolized | Compound metabolized | Compound metabolized | Compound NOT metabolized | Compound metabolized | Compound metabolized
CC(C)(C)NC[C@H](O)COc1nsnc1N1CCOCC1.O=C(O)/C=C\C(=O)O [TIMOLOL MALEATE] | Compound NOT metabolized | Compound NOT metabolized | Compound NOT metabolized | Compound NOT metabolized | Compound NOT metabolized | Compound NOT metabolized | Compound NOT metabolized | Compound NOT metabolized | Compound NOT metabolized | Compound NOT metabolized | Compound NOT metabolized | Compound NOT metabolized | Compound NOT metabolized | Compound NOT metabolized | Compound NOT metabolized | Compound NOT metabolized | Compound NOT metabolized | Compound NOT metabolized | Compound NOT metabolized | Compound NOT metabolized
CC[C@@]1(O)C(=O)OCc2c1cc1n(c2=O)Cc2cc3c(CN(C)C)c(O)ccc3nc2-1 [TOPOTECAN] | Compound NOT metabolized | Compound NOT metabolized | Compound NOT metabolized | Compound NOT metabolized | Compound NOT metabolized | Compound NOT metabolized | Compound NOT metabolized | Compound NOT metabolized | Compound NOT metabolized | Compound NOT metabolized | Compound NOT metabolized | Compound NOT metabolized | Compound NOT metabolized | Compound NOT metabolized | Compound NOT metabolized | Compound NOT metabolized | Compound NOT metabolized | Compound NOT metabolized | Compound NOT metabolized | Compound NOT metabolized
COc1ccc(C(CN(C)C)C2(O)CCCCC2)cc1 (stereo not given) [VENLAFAXINE] | Compound NOT metabolized | Compound NOT metabolized | Compound NOT metabolized | Compound NOT metabolized | Compound NOT metabolized | Compound NOT metabolized | Compound metabolized | Compound NOT metabolized | Compound metabolized | Compound NOT metabolized | Compound NOT metabolized | Compound NOT metabolized | Compound NOT metabolized | Compound NOT metabolized | Compound NOT metabolized | Compound NOT metabolized | Compound NOT metabolized | Compound NOT metabolized | Compound metabolized | Compound NOT metabolized
CCOC(=O)C1=C[C@]2(CC)CCCN3CCc4c(n1c1ccccc41)[C@@H]32 [VINPOCETINE] | Compound NOT metabolized | Compound metabolized | Compound NOT metabolized | Compound metabolized | Compound NOT metabolized | Compound metabolized | Compound NOT metabolized | Compound metabolized | Compound metabolized | Compound NOT metabolized | Compound metabolized | Compound metabolized | Compound NOT metabolized | Compound metabolized | Compound NOT metabolized | Compound metabolized | Compound metabolized | Compound NOT metabolized | Compound metabolized | Compound NOT metabolized
C[C@@H](c1ncncc1F)[C@](O)(Cn1cncn1)c1ccc(F)cc1F [VORICONAZOLE] | Compound NOT metabolized | Compound metabolized | Compound NOT metabolized | Compound metabolized | Compound NOT metabolized | Compound metabolized | Compound NOT metabolized | Compound metabolized | Compound metabolized | Compound metabolized | Compound metabolized | Compound metabolized | Compound metabolized | Compound metabolized | Compound metabolized | Compound metabolized | Compound metabolized | Compound metabolized | Compound metabolized | Compound metabolized
CCN(C(C)=O)c1cccc(-c2ccnc3c(C#N)cnn23)c1 [ZALEPLON] | Compound metabolized | Compound NOT metabolized | Compound NOT metabolized | Compound metabolized | Compound NOT metabolized | Compound metabolized | Compound NOT metabolized | Compound metabolized | Compound metabolized | Compound metabolized | Compound metabolized | Compound metabolized | Compound NOT metabolized | Compound metabolized | Compound metabolized | Compound metabolized | Compound metabolized | Compound NOT metabolized | Compound metabolized | Compound metabolized
